# In patent publication US20260325487A1 (BS BIOTECHNA SPOLKA AKCYJNA, priority 2023, published 2026):
# Read-outs that look alike come from different tables or passages of the source.
# What was measured:
# Format in all cases: cell-based
# LUDLU-1 = assay: SRB anti-proliferative assay, LUDLU-1, with CalcuSyn combination index (Example 1); settings: Homo sapiens, LUDLU-1, 72 h, read-out: Zah. (inhibition of proliferation)
# Protocol: (§1) Cells were thawed from ampoules stored in liquid nitrogen and cultured in petri dishes in appropriate culture medium according to Table 2, in a humidified 5% CO2 atmosphere at 37° C. Cells were passaged twice weekly using EDTA-Trypsin solution, pH 8. Counted cells with a viability of at least 90% as assessed with Trypan-Blue solution were used for anti-proliferative assays.
# (§2) Twenty-four hours before the addition of the test compounds/combinations, cells were seeded into 384-well plates at 50 μL/well and a density of 10^3 cells/well, in the appropriate culture medium.
# (§3) Solutions of the compounds were diluted in the test medium-RPMI-1640 and Opti-MEM in a 1:1 ratio, and the medium was supplemented with 2 mM glutamine and 5% fetal bovine serum FBS. After 72 h, colourimetric assessment of cell growth was performed by SRB. […] Unbound dye was removed by washing the plates (4×) in 1% (v/v) acetic acid, and protein-bound dye was extracted with 10 mM unbuffered Tris base and the optical density (A=540 nm) was determined in a BioTek Synergy H4 Hybrid computer microplate reader (BioTek Instruments USA). The entire washing/staining procedure was performed using a BioTek EL406 washing station (BioTek Instruments USA). The raw absorbance results were analysed in Microsoft Excel software using the formula:
# (§4) [formula] • Where: • % Zahlnh-inhibition of proliferation • Am—absorbance of wells without cells (medium) • Ak—absorbance of control wells (cells treated with pure culture medium) • Ap—absorbance of wells treated with compounds
# (§5) Each compound at the indicated concentrations was tested in triplicate in one experiment. Each experiment was repeated three times. Data analysis was supplemented with synergy assessment using CalcuSyn software. […] A CI value below 0.8 indicates synergism, 0.8-1.2 an additive effect, above 1.2 an antagonism.
# NCI-H226 [1] = assay: SRB anti-proliferative assay, NCI-H226, with CalcuSyn combination index (Example 1); settings: Homo sapiens, NCI-H226, 72 h, read-out: Zah. (inhibition of proliferation)
# Protocol: as §1, §2, §3, §4, §5
# NCI-H1299 = assay: SRB anti-proliferative assay, NCI-H1299, with CalcuSyn combination index (Example 1); settings: Homo sapiens, NCI-H1299, 72 h, read-out: Zah. (inhibition of proliferation)
# Protocol: as §1, §2, §3, §4, §5
# LN229 [2] = assay: SRB anti-proliferative assay, LN229, with CalcuSyn combination index (Example 1); settings: Homo sapiens, LN-229, 72 h, read-out: Zah. (inhibition of proliferation)
# Protocol: as §1, §2, §3, §4, §5
# A172 = assay: SRB anti-proliferative assay, A172, molecular combination and nanoparticles, with combination index (Example III); settings: Homo sapiens, A 172, 72 h, read-out: Zah. (inhibition of proliferation)
# Protocol: (§6) Cells were thawed from ampoules stored in liquid nitrogen and cultured in petri dishes in the appropriate culture medium according to Table 16, in a humidified 5% CO2 atmosphere at 37° C. Cells were passaged twice weekly using EDTA-Trypsin solution, pH 8, as a separating agent. Counted cells with a viability of at least 90% as assessed with Trypan-Blue solution were used for anti-proliferation assays.
# (§7) Twenty-four hours before the addition of the test compounds/combinations, cells were seeded into 384-well plates at 50 μL/well and a density of 10^3 cells/well, in the appropriate culture medium. […] Solutions of the compounds were diluted in the test medium—RPMI-1640 and Opti-MEM in a 1:1 ratio, and the medium was supplemented with 2 mM glutamine and 5% fetal bovine serum FBS.
# as §3, with “After” for “Solutions of the compounds were diluted in the test medium-RPMI-1640 and Opti-MEM in a 1:1 ratio, and the medium was supplemented with 2 mM glutamine and 5% fetal bovine serum FBS. After”
# as §4, §5
# LN229 [3] = assay: SRB anti-proliferative assay, LN229, molecular combination and nanoparticles, with combination index (Example III); settings: Homo sapiens
# Protocol: as §6, §7
# as §3, with “After” for “Solutions of the compounds were diluted in the test medium-RPMI-1640 and Opti-MEM in a 1:1 ratio, and the medium was supplemented with 2 mM glutamine and 5% fetal bovine serum FBS. After”
# as §4, §5
# NCI-H226 [4] = assay: SRB anti-proliferative assay, NCI-H226, molecular combination and nanoparticles, with combination index (Example III); settings: Homo sapiens
# Protocol: as §6, §7
# as §3, with “After” for “Solutions of the compounds were diluted in the test medium-RPMI-1640 and Opti-MEM in a 1:1 ratio, and the medium was supplemented with 2 mM glutamine and 5% fetal bovine serum FBS. After”
# as §4, §5
# [5] = LN-229, 72 h, read-out: Zah. (inhibition of proliferation)
# [6] = LN-229, read-out: Zah. (inhibition of cell proliferation)
compound,measurement,setting,value
"C=CCNC1=C2C[C@@H](C)C[C@H](OC)[C@H](O)[C@@H](C)/C=C(\C)[C@H](OC(N)=O)[C@@H](OC)/C=C\C=C(/C)C(=O)NC(=CC1=O)C2=O [17AAG, 17-AAG (tanespimycin)]",inhibition at 0.0031 µM,LUDLU-1,6.1%
same,inhibition at 0.01 µM,LUDLU-1,20.4%
same,inhibition at 0.0314 µM,LUDLU-1,47.8%
same,inhibition at 0.1 µM,LUDLU-1,66.9%
same,inhibition at 0.3139 µM,LUDLU-1,74.1%
same,inhibition at 1 µM,LUDLU-1,78.6%
same,inhibition at 3.1546 µM,LUDLU-1,83.3%
same,inhibition at 10 µM,LUDLU-1,86.3%
same,inhibition at 0.0031 µM,NCI-H226 [1],19.3%
same,inhibition at 0.01 µM,NCI-H226 [1],27.3%
same,inhibition at 0.03 µM,NCI-H226 [1],32%
same,inhibition at 0.1 µM,NCI-H226 [1],43.8%
same,inhibition at 0.3124 µM,NCI-H226 [1],54.8%
same,inhibition at 1 µM,NCI-H226 [1],60.4%
same,inhibition at 3.1392 µM,NCI-H226 [1],71.9%
same,inhibition at 10 µM,NCI-H226 [1],72.6%
same,inhibition at 0.0031 µM,NCI-H1299,5.1%
same,inhibition at 0.01 µM,NCI-H1299,10.5%
same,inhibition at 0.0314 µM,NCI-H1299,43.4%
same,inhibition at 0.1 µM,NCI-H1299,80.8%
same,inhibition at 0.3155 µM,NCI-H1299,93.4%
same,inhibition at 1 µM,NCI-H1299,96.9%
same,inhibition at 3.1546 µM,NCI-H1299,96.8%
same,inhibition at 10 µM,NCI-H1299,95.3%
same,inhibition at 0.0032 µM,LN229 [2],3.3%
same,inhibition at 0.01 µM,LN229 [2],3.1%
same,inhibition at 0.0316 µM,LN229 [2],18.4%
same,inhibition at 0.1 µM,LN229 [2],28.9%
same,inhibition at 0.3163 µM,LN229 [2],38.7%
same,inhibition at 1 µM,LN229 [2],62.9%
same,inhibition at 3.1625 µM,LN229 [2],71.6%
same,inhibition at 10.0005 µM,LN229 [2],81.5%
same,inhibition at 0.0003163 µM,A172,6%
same,inhibition at 0.001 µM,A172,15.7%
same,inhibition at 0.0032 µM,A172,4.7%
same,inhibition at 0.01 µM,A172,7.8%
same,inhibition at 0.0316 µM,A172,20.1%
same,inhibition at 0.1 µM,A172,37.4%
same,inhibition at 0.3163 µM,A172,64.6%
same,inhibition at 1 µM,A172,81.1%
same,inhibition at 0.0032 µM,LN229 [3]; [5],3.3%
same,inhibition at 0.01 µM,LN229 [3]; [5],3.1%
same,inhibition at 0.0316 µM,LN229 [3]; [5],18.4%
same,inhibition at 0.1 µM,LN229 [3]; [5],28.9%
same,inhibition at 0.3163 µM,LN229 [3]; [5],38.7%
same,inhibition at 1 µM,LN229 [3]; [5],62.9%
same,inhibition at 3.1625 µM,LN229 [3]; [5],71.6%
same,inhibition at 10.0005 µM,LN229 [3]; [5],81.5%
same,inhibition at 0.0032 µM,LN229 [3]; [6],3.3%
same,inhibition at 0.01 µM,LN229 [3]; [6],3.1%
same,inhibition at 0.0316 µM,LN229 [3]; [6],18.4%
same,inhibition at 0.1 µM,LN229 [3]; [6],28.9%
same,inhibition at 0.3163 µM,LN229 [3]; [6],38.7%
same,inhibition at 1 µM,LN229 [3]; [6],62.9%
same,inhibition at 3.1625 µM,LN229 [3]; [6],71.6%
same,inhibition at 10.0005 µM,LN229 [3]; [6],81.5%
same,inhibition at 0.0032 µM,"NCI-H226 [4]; NCI-H226, read-out: Inhibition of cell proliferation (Zah.), single agent, 3.2 nM",10.4%
same,inhibition at 0.01 µM,"NCI-H226 [4]; NCI-H226, read-out: Inhibition of cell proliferation (Zah.), single agent, 10 nM",17.2%
same,inhibition at 0.0316 µM,"NCI-H226 [4]; NCI-H226, read-out: Inhibition of cell proliferation (Zah.), single agent, 31.6 nM",29.4%
same,inhibition at 0.1 µM,"NCI-H226 [4]; NCI-H226, read-out: Inhibition of cell proliferation (Zah.), single agent, 100 nM",51.4%
same,inhibition at 0.3163 µM,"NCI-H226 [4]; NCI-H226, read-out: Inhibition of cell proliferation (Zah.), single agent, 316.3 nM",59.1%
same,inhibition at 1 µM,"NCI-H226 [4]; NCI-H226, read-out: Inhibition of cell proliferation (Zah.), single agent, 1000 nM",65%
same,inhibition at 3.1625 µM,"NCI-H226 [4]; NCI-H226, read-out: Inhibition of cell proliferation (Zah.), single agent, 3162.5 nM",69.5%
same,inhibition at 10.0005 µM,"NCI-H226 [4]; NCI-H226, read-out: Inhibition of cell proliferation (Zah.), single agent, 10000.5 nM",68.4%
same,inhibition at 0.0032 µM,"NCI-H226 [4]; NCI-H226, read-out: Zah. (inhibition of cell proliferation), NCI-H226 (Table 35a), compound alone, 3.2 nM",10.4%
same,inhibition at 0.01 µM,"NCI-H226 [4]; NCI-H226, read-out: Zah. (inhibition of cell proliferation), NCI-H226 (Table 35a), compound alone, 10 nM",17.2%
same,inhibition at 0.0316 µM,"NCI-H226 [4]; NCI-H226, read-out: Zah. (inhibition of cell proliferation), NCI-H226 (Table 35a), compound alone, 31.6 nM",29.4%
same,inhibition at 0.1 µM,"NCI-H226 [4]; NCI-H226, read-out: Zah. (inhibition of cell proliferation), NCI-H226 (Table 35a), compound alone, 100 nM",51.4%
same,inhibition at 0.3163 µM,"NCI-H226 [4]; NCI-H226, read-out: Zah. (inhibition of cell proliferation), NCI-H226 (Table 35a), compound alone, 316.3 nM",59.1%
same,inhibition at 1 µM,"NCI-H226 [4]; NCI-H226, read-out: Zah. (inhibition of cell proliferation), NCI-H226 (Table 35a), compound alone, 1000 nM",65%
same,inhibition at 3.1625 µM,"NCI-H226 [4]; NCI-H226, read-out: Zah. (inhibition of cell proliferation), NCI-H226 (Table 35a), compound alone, 3162.5 nM",69.5%
same,inhibition at 10.0005 µM,"NCI-H226 [4]; NCI-H226, read-out: Zah. (inhibition of cell proliferation), NCI-H226 (Table 35a), compound alone, 10000.5 nM",68.4%
same,inhibition at 0.0032 µM,"NCI-H226 [4]; NCI-H226, read-out: Zah. (inhibition of cell proliferation), NCI-H226, compound alone, 3.2 nM",-6.6%
same,inhibition at 0.01 µM,"NCI-H226 [4]; NCI-H226, read-out: Zah. (inhibition of cell proliferation), NCI-H226, compound alone, 10 nM",-4.6%
same,inhibition at 0.0316 µM,"NCI-H226 [4]; NCI-H226, read-out: Zah. (inhibition of cell proliferation), NCI-H226, compound alone, 31.6 nM",30.6%
same,inhibition at 0.1 µM,"NCI-H226 [4]; NCI-H226, read-out: Zah. (inhibition of cell proliferation), NCI-H226, compound alone, 100 nM",44.7%
same,inhibition at 0.3163 µM,"NCI-H226 [4]; NCI-H226, read-out: Zah. (inhibition of cell proliferation), NCI-H226, compound alone, 316.3 nM",49.3%
same,inhibition at 1 µM,"NCI-H226 [4]; NCI-H226, read-out: Zah. (inhibition of cell proliferation), NCI-H226, compound alone, 1000 nM",59%
same,inhibition at 3.1625 µM,"NCI-H226 [4]; NCI-H226, read-out: Zah. (inhibition of cell proliferation), NCI-H226, compound alone, 3162.5 nM",63.5%
same,inhibition at 10.0005 µM,"NCI-H226 [4]; NCI-H226, read-out: Zah. (inhibition of cell proliferation), NCI-H226, compound alone, 10000.5 nM",61.4%
